# Patent publication US8088815B2, “Spiroindolinone pyrrolidines” (Hoffman-La Roche Inc., priority 2009, dated 2012)
# Target: interaction between p53 and MDM2 proteins (Homo sapiens, UniProt Q00987)
# Assay: HTRF assay of inhibition of the p53-MDM2 interaction (GST-MDM2 / biotinylated p53 peptide)
# Type: binding
# Settings: recombinant GST-tagged MDM2 and biotinylated p53 peptide, bsa:0.02%
# interaction between p53 and MDM2 proteins, sequence (Q00987 whole entry): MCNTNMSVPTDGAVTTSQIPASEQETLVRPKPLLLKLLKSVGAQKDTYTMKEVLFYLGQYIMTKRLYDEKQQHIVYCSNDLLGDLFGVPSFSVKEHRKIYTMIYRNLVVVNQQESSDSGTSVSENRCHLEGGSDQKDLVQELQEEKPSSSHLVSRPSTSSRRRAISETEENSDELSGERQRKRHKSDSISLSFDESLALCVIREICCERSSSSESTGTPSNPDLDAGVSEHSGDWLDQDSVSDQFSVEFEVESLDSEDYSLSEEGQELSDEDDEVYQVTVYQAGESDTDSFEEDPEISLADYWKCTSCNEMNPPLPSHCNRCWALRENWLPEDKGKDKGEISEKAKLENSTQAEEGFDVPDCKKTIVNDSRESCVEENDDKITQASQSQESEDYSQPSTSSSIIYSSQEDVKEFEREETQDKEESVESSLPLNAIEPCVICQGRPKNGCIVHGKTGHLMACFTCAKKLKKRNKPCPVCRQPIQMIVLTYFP
row,SMILES,IC50 [nM]
1,"CCCCOc1cc(C(=O)OC)ccc1NC(=O)[C@@H]1N[C@@H](CC(C)(C)C)[C@@]2(C(=O)Nc3cc(Cl)ccc32)[C@H]1c1cccc(Cl)c1F (racemic) [Example 150, rac-3-butoxy-4-{[(2′S,3′R,4′S,5′R)-6-chloro-4′-(3-chloro-2-fluoro-phenyl)-2′-(2,2-dimethyl-propyl)-2-oxo-1,2-dihydro-spiro[indole-3,3′-pyrrolidine]-5′-carbonyl]-amino}-benzoic acid methyl ester]",15
2,"CCCCOc1cc(C(=O)O)ccc1NC(=O)[C@@H]1N[C@@H](CC(C)(C)C)[C@@]2(C(=O)Nc3cc(Cl)ccc32)[C@H]1c1cccc(Cl)c1F (racemic) [Example 151, rac-3-butoxy-4-{[(2′S,3′R,4′S,5′R)-6-chloro-4′-(3-chloro-2-fluoro-phenyl)-2′-(2,2-dimethyl-propyl)-2-oxo-1,2-dihydro-spiro[indole-3,3′-pyrrolidine]-5′-carbonyl]amino}-benzoic acid]",13
3,"CCCCOc1cc(C(N)=O)ccc1NC(=O)[C@@H]1N[C@@H](CC(C)(C)C)[C@@]2(C(=O)Nc3cc(Cl)ccc32)[C@H]1c1cccc(Cl)c1F (racemic) [Example 152, rac-(2′S,3′R,4′S,5′R)-6-chloro-4′-(3-chloro-2-fluoro-phenyl)-2′-(2,2-dimethyl-propyl)-2-oxo-1,2-dihydro-spiro[indole-3,3′-pyrrolidine]-5′-carboxylic acid (2-butoxy-4-carbamoyl-phenyl)-amide]",11
4,"COc1cc(-n2cnnn2)ccc1NC(=O)[C@@H]1N[C@@H](CC(C)(C)C)[C@@]2(C(=O)Nc3cc(Cl)ccc32)[C@H]1c1cccc(Cl)c1F (racemic) [Example 153, rac-(2′S,3′R,4′S,5′R)-6-chloro-4′-(3-chloro-2-fluoro-phenyl)-2′-(2,2-dimethyl-propyl)-2-oxo-1,2-dihydro-spiro[indole-3,3′-pyrrolidine]-5′-carboxylic acid (2-methoxy-4-tetrazol-1-yl-phenyl)-amide]",8
5,"COc1cc(NS(C)(=O)=O)ccc1NC(=O)[C@@H]1N[C@@H](CC(C)(C)C)[C@@]2(C(=O)Nc3cc(Cl)ccc32)[C@H]1c1cccc(Cl)c1F (racemic) [Example 155, rac-(2′S,3′R,4′S,5′R)-6-chloro-4′-(3-chloro-2-fluoro-phenyl)-2′-(2,2-dimethyl-propyl)-2-oxo-1,2-dihydro-spiro[indole-3,3′-pyrrolidine]-5′-carboxylic acid (4-methanesulfonylamino-2-methoxy-phenyl)-amide]",13
6,"COc1cnccc1NC(=O)[C@@H]1N[C@@H](CC(C)(C)C)[C@@]2(C(=O)Nc3cc(Cl)ccc32)[C@H]1c1cccc(Cl)c1F (racemic) [Example 162, rac-(2′S,3′R,4′S,5′R)-6-chloro-4′-(3-chloro-2-fluoro-phenyl)-2′-(2,2-dimethyl-propyl)-2-oxo-1,2-dihydro-spiro[indole-3,3′-pyrrolidine]-5′-carboxylic acid (3-methoxy-pyridin-4-yl)-amide]",19
7,"COc1cc(N(C)C)ccc1NC(=O)[C@@H]1N[C@@H](CC(C)(C)C)[C@@]2(C(=O)Nc3cc(Cl)ccc32)[C@H]1c1cccc(Cl)c1F (racemic) [Example 164, rac-(2′S,3′R,4′S,5′R)-6-chloro-4′-(3-chloro-2-fluoro-phenyl)-2′-(2,2-dimethyl-propyl)-2-oxo-1,2-dihydro-spiro[indole-3,3′-pyrrolidine]-5′-carboxylic acid (4-dimethylamino-2-methoxy-phenyl)-amide]",18
8,"CNc1cc(C(=O)OC)ccc1NC(=O)[C@@H]1N[C@@H](CC(C)(C)C)[C@@]2(C(=O)Nc3cc(Cl)ccc32)[C@H]1c1cccc(Cl)c1F (racemic) [Example 166, rac-4-{[(2′S,3′R,4′S,5′R)-6-chloro-4′-(3-chloro-2-fluoro-phenyl)-2′-(2,2-dimethyl-propyl)-2-oxo-1,2-dihydro-spiro[indole-3,3′-pyrrolidine]-5′-carbonyl]amino}-3-methylamino-benzoic acid methyl ester]",25
9,"CNc1cc(C(=O)O)ccc1NC(=O)[C@@H]1N[C@@H](CC(C)(C)C)[C@@]2(C(=O)Nc3cc(Cl)ccc32)[C@H]1c1cccc(Cl)c1F (racemic) [Example 167, rac-4-{[(2′S,3′R,4′S,5′R)-6-chloro-4′-(3-chloro-2-fluoro-phenyl)-2′-(2,2-dimethyl-propyl)-2-oxo-1,2-dihydro-spiro[indole-3,3′-pyrrolidine]-5′-carbonyl]-amino}-3-methylamino-benzoic acid]",10
10,"CC(C)(C)C[C@@H]1N[C@@H](C(=O)Nc2ccc(C#N)cc2)[C@H](c2cccc(Cl)c2F)[C@]12C(=O)Nc1c2ccc(Cl)c1F (racemic) [Example 175, rac-(2′S,3′R,4′S,5′R)-6-chloro-4′-(3-chloro-2-fluoro-phenyl)-2′-(2,2-dimethyl-propyl)-7-fluoro-2-oxo-1,2-dihydro-spiro[indole-3,3′-pyrrolidine]-5′-carboxylic acid (4-cyano-phenyl)-amide]",40
11,"CC(C)(C)C[C@@H]1N[C@@H](C(=O)Nc2ccc(C(N)=O)cc2)[C@H](c2cccc(Cl)c2F)[C@]12C(=O)Nc1c2ccc(Cl)c1F (racemic) [Example 176, rac-(2′S,3′R,4′S,5′R)-6-chloro-4′-(3-chloro-2-fluoro-phenyl)-2′-(2,2-dimethyl-propyl)-7-fluoro-2-oxo-1,2-dihydro-spiro[indole-3,3′-pyrrolidine]-5′-carboxylic acid (4-carbamoyl-phenyl)-amide]",18
12,"COc1cc(C#N)ccc1NC(=O)[C@@H]1N[C@@H](CC(C)(C)C)[C@@]2(C(=O)Nc3c2ccc(Cl)c3F)[C@H]1c1cccc(Cl)c1F (racemic) [Example 177, rac-(2′S,3′R,4′S,5′R)-6-chloro-4′-(3-chloro-2-fluoro-phenyl)-2′-(2,2-dimethyl-propyl)-7-fluoro-2-oxo-1,2-dihydro-spiro[indole-3,3′-pyrrolidine]-5′-carboxylic acid (4-cyano-2-methoxy-phenyl)-amide]",21
13,"COc1cc(C(N)=O)ccc1NC(=O)[C@@H]1N[C@@H](CC(C)(C)C)[C@@]2(C(=O)Nc3c2ccc(Cl)c3F)[C@H]1c1cccc(Cl)c1F (racemic) [Example 178, rac-(2′S,3′R,4′S,5′R)-6-chloro-4′-(3-chloro-2-fluoro-phenyl)-2′-(2,2-dimethyl-propyl)-7-fluoro-2-oxo-1,2-dihydro-spiro[indole-3,3′-pyrrolidine]-5′-carboxylic acid (4-carbamoyl-2-methoxy-phenyl)-amide]",15
14,"COc1cc(OCCO)ccc1NC(=O)[C@@H]1N[C@@H](CC(C)(C)C)[C@@]2(C(=O)Nc3c2ccc(Cl)c3F)[C@H]1c1cccc(Cl)c1F (racemic) [Example 179, rac-(2′S,3′R,4′S,5′R)-6-chloro-4′-(3-chloro-2-fluoro-phenyl)-2′-(2,2-dimethyl-propyl)-7-fluoro-2-oxo-1,2-dihydro-spiro[indole-3,3′-pyrrolidine]-5′-carboxylic acid [4-(2-hydroxy-ethoxy)-2-methoxy-phenyl]-amide]",39
15,"CC(C)(C)C[C@@H]1N[C@@H](C(=O)Nc2ccc(C#N)nc2)[C@H](c2cccc(Cl)c2F)[C@]12C(=O)Nc1cc(Cl)ccc12 (racemic) [Example 182, rac-(2′S,3′R,4′S,5′R)-6-chloro-4′-(3-chloro-2-fluoro-phenyl)-2′-(2,2-dimethyl-propyl)-2-oxo-1,2-dihydro-spiro[indole-3,3′-pyrrolidine]-5′-carboxylic acid (6-cyano-pyridin-3-yl)-amide]",17
16,"CC(C)(C)C[C@@H]1N[C@@H](C(=O)Nc2ccc(C(N)=O)nc2)[C@H](c2cccc(Cl)c2F)[C@]12C(=O)Nc1cc(Cl)ccc12 (racemic) [Example 183, rac-(2′S,3′R,4′S,5′R)-6-chloro-4′-(3-chloro-2-fluoro-phenyl)-2′-(2,2-dimethyl-propyl)-2-oxo-1,2-dihydro-spiro[indole-3,3′-pyrrolidine]-5′-carboxylic acid (6-carbamoyl-pyridin-3-yl)-amide]",7
17,"CC(C)(C)C[C@@H]1N[C@@H](C(=O)Nc2cnc(C(N)=O)nc2)[C@H](c2cccc(Cl)c2F)[C@]12C(=O)Nc1cc(Cl)ccc12 (racemic) [Example 185, rac-(2′S,3′R,4′S,5′R)-6-chloro-4′-(3-chloro-2-fluoro-phenyl)-2′-(2,2-dimethyl-propyl)-2-oxo-1,2-dihydro-spiro[indole-3,3′-pyrrolidine]-5′-carboxylic acid (2-carbamoyl-pyrimidin-5-yl)-amide]",16
18,"CC(C)(C)C[C@@H]1N[C@@H](C(=O)Nc2ccc(C#N)s2)[C@H](c2cccc(Cl)c2F)[C@]12C(=O)Nc1cc(Cl)ccc12 (racemic) [Example 187, rac-(2′S,3′R,4′S,5′R)-6-chloro-4′-(3-chloro-2-fluoro-phenyl)-2′-(2,2-dimethyl-propyl)-2-oxo-1,2-dihydro-spiro[indole-3,3′-pyrrolidine]-5′-carboxylic acid (5-cyano-thiophen-2-yl)-amide]",15
19,"CC(C)(C)C[C@@H]1N[C@@H](C(=O)Nc2ccc(C(N)=O)s2)[C@H](c2cccc(Cl)c2F)[C@]12C(=O)Nc1cc(Cl)ccc12 (racemic) [Example 188, rac-(2′S,3′R,4′S,5′R)-6-chloro-4′-(3-chloro-2-fluoro-phenyl)-2′-(2,2-dimethyl-propyl)-2-oxo-1,2-dihydro-spiro[indole-3,3′-pyrrolidine]-5′-carboxylic acid (5-carbamoyl-thiophen-2-yl)-amide]",8
20,"COc1cc(OCCO)ncc1NC(=O)[C@@H]1N[C@@H](CC(C)(C)C)[C@@]2(C(=O)Nc3cc(Cl)ccc32)[C@H]1c1cccc(Cl)c1F (racemic) [Example 192, rac-(2′S,3′R,4′S,5′R)-6-chloro-4′-(3-chloro-2-fluoro-phenyl)-2′-(2,2-dimethyl-propyl)-2-oxo-1,2-dihydro-spiro[indole-3,3′-pyrrolidine]-5′-carboxylic acid [6-(2-hydroxy-ethoxy)-4-methoxy-pyridin-3-yl]-amide]",7
